Assay results taken from patent US20130203718A1 (priority 2010, published 2013).

How the values were obtained:
hAR = target: T1, hAR (Homo sapiens, UniProt P10275); assay: APRn selectivity: transactivation in HEK293T cells transiently expressing hAR; assay type: cell-based; settings: HEK293T, FIG. 11
T1 construct: expressed in transfected cells; host or cells: HEK 293T
T1 sequence (P10275 1-920): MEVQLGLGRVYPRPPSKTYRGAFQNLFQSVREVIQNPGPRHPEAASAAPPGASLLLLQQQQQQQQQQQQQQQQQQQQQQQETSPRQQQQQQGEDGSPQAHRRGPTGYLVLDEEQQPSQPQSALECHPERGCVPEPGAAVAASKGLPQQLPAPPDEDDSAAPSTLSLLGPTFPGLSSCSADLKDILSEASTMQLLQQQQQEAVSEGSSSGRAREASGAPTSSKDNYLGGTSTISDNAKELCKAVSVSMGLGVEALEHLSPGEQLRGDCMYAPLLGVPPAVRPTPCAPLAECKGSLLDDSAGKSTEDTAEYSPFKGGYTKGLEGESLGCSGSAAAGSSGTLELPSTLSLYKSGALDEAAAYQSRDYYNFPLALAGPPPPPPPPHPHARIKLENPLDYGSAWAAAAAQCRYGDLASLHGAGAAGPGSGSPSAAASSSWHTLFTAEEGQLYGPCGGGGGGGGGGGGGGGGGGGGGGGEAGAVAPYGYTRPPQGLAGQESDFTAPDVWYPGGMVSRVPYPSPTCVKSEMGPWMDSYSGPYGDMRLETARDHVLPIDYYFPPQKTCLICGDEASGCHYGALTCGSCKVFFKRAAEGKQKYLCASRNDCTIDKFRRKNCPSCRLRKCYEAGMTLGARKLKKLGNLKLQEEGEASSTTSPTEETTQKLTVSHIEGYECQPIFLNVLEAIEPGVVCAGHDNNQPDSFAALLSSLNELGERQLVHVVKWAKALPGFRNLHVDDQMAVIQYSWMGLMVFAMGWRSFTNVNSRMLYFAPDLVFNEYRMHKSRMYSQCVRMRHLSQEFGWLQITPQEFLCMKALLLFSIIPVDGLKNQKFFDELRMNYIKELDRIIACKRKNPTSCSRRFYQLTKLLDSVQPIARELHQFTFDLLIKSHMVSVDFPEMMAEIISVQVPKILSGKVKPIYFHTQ
Method: Measurement of the APRn Selectivity in HEK 293T.
The HEK-293T cells were cultured and transfected according to the method described above for the PR transactivation assays. The expression vectors pcDNA-hAR, kindly provided by G. A. Coetzee, pchGR (Hellal-Levy, C et al. FEBS Lett 1999, 464, 9), and pchMR (Fagart, J. et al. EMBO J. 1998, 17, 3317) were used for studying the ability of APRn to activate or inactivate the AR, GR and MR, respectively. For each transfection assays, 2 μg of the expression vector was used together with 7 μg of the GRE2-Luc reporter vector. Dihydrotestosterone (DHT), dexamethasone (Dex) and Aldosterone (Aldo) were selected as AR, GR and MR ligands, respectively. They were used at the concentration of 10^−9 M. The APRn agonist and antagonist efficacy for AR, GR and MR were measured as described above for PR. The results are the mean±SEM of three independent experiments.
Transfection assays were performed in HEK 293T cells by using expression vectors for the hAR, hGR and hMR and the GRE2-Luc reporter used for the PR transactivation assays.

hPRB = target: T2, hPRB (Homo sapiens, UniProt P06401); assay: PR transactivation assay (GRE2-Luc) in HEK293T cells transiently expressing hPRB; assay type: cell-based; set-up: expressed in transfected cells; host or cells: HEK 293T; settings: series 1 (no C3 substituent), HEK293T, APRn 1 μM, FIG. 1
T2 sequence (P06401 1-933): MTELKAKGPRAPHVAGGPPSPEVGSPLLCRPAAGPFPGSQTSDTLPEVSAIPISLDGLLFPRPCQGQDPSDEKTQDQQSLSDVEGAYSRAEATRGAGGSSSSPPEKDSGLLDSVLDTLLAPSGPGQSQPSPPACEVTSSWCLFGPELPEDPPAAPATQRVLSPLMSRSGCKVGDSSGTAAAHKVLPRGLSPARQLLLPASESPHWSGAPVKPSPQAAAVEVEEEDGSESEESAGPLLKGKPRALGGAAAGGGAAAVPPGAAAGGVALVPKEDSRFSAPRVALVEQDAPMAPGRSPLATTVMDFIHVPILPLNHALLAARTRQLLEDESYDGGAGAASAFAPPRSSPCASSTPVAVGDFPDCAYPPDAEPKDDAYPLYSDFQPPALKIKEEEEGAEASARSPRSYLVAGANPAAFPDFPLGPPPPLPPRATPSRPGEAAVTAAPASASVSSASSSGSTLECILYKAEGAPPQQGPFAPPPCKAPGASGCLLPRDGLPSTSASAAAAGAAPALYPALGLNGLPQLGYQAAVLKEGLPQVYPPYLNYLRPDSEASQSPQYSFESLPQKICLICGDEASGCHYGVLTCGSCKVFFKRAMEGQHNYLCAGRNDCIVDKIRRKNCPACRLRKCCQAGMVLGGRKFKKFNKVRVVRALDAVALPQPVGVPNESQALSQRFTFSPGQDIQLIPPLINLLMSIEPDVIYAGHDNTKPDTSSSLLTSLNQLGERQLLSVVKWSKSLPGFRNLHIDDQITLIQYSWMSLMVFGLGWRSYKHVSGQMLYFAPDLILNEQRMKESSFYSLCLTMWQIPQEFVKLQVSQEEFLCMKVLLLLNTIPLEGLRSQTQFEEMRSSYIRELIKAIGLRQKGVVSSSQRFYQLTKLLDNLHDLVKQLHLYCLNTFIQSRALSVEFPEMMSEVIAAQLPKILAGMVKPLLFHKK
Method: PR Transactivation Assays in HEK 293T.
HEK 293T cells were routinely cultured in a high-glucose DMEM medium (Invitrogene, Cergy Pontoise, France), 20 mM HEPES, 2 mM glutamine, 1× non essential amino acids, 100 U/mL penicillin and 100 μg/mL streptomycin supplemented with 10% foetal calf serum (FCS) in a humidified atmosphere at 37° C. and with 5% CO2. One day before transfection, the cells were seeded at 3×10^6 cells/[…] diameter culture Petri dish and cultured overnight in the same medium. Six hours before transfection, the FCS supplemented medium was replaced by the same medium supplemented with 10% dextran-charcoal treated FCS. Transfections were carried out using the calcium phosphate precipitation method. The calcium phosphate precipitate was prepared with 0.5 μg pchPRB (Petit-Topin, et al Mol Pharmacol, 2009, 75, 1317), 7 μg reporter vector (GRE2-Luc from A. Biola-Vidamment and M. Pallardy) and 1 μg of pcβgal for an internal transfection control, in 1 mL 140 mM NaCl, 0.75 mM Na2HPO4, 25 mM HEPES, 125 mM CaCl2 pH 7.05 and added to the cells 30 minutes later. After 16 h incubation, the transfected cells were washed with PBS containing 2.5 mM EDTA, trypsinized and pooled. The transfected cells were replated in 24-well plates (100.000 transfected cells/well). […] Cells were lysed in 300 μl PBS 1×, 25 mM glycylglycine, 4 mM EDTA, 15% glycerol, 1% triton X-100, 15 mM MgSO4, pH 7.8 supplemented with 2 mM β-mercaptoethanol. The luciferase activities were quantified by using a Mithras LB940 reader microplates (Berthold).
The APRn “agonist efficacy” was determined from the following formula:
Agonist efficacy=[luciferase activity]1/[luciferase activity]2×100
The APRn “antagonist efficacy” was calculated from the following formula:
Antagonist efficacy=100−[luciferase activity]1/[luciferase activity]2×100
The results are the mean±SEM of three to five independent experiments.
All the synthesized APRn were classified in 4 series depending on the nature of their C3 substituent (R1/R′1 groups). The first one (series 1) includes APRn with no C3 substituent (R1═R′1═H) whereas series 2, 3 and 4 are related to APRn bearing a methoxyl (R1═OMe), a hydroxyl (R1═OH) and a fluorine atom (R1═F), respectively. The agonist/antagonist activities of APRn were determined either in human HEK293T cells transiently expressing hPRB or in human MDA-MB-231 iPRAB cells conditionally expressing hPRB, by using a luciferase reporter gene placed under the control of a glucocorticoid response element (GRE2-Luc). The APRn “agonist efficacy” was determined from the luciferase activity measured in the presence of APRn (1 μM). […] The “agonist efficacy” and “antagonist efficacy” are expressed as defined in the biological protocols section.

Structure (SMILES): CC(=O)O[C@H]1CCC2C3CC=C4C=CCC[C@@H]4C3CC[C@@]21C (stereo partly drawn) [APR-49, 17β-Acetoxy-19-nor-androst-3,5-diene]
- agonist efficacy towards hAR (in words) (hAR): high potent hAR agonists
- hPRB agonist/antagonist character (in words) (hPRB): full antagonists
- melting point: 94 to 95 °C
